Tests used:
Assay in all cases: relative viability (nuclei count vs DMSO), 5 days (fraction); higher = more cells survive
Imatinib + Linsitinib = compound: Cc1ccc(NC(=O)c2ccc(CN3CCN(C)CC3)cc2)cc1Nc1nccc(-c2cccnc2)n1 [Imatinib] + C[C@]1(O)C[C@@H](c2nc(-c3ccc4ccc(-c5ccccc5)nc4c3)c3c(N)nccn32)C1 [Linsitinib] (partner 1 µM)
Method in brief: (§1)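 Lung cancer cell lines were pin-tool dosed in 1536-well plates on the day after seeding, with either a lone drug or a fixed anchor-drug dose plus five library-drug doses (not always all listed) in √10 steps. Nuclei were counted on 4× images after 5 days. Relative viability is the ratio of treated-well to vehicle-well nuclei counts, with each value a median of duplicate plates.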

Imatinib + Olaparib = compound: Cc1ccc(NC(=O)c2ccc(CN3CCN(C)CC3)cc2)cc1Nc1nccc(-c2cccnc2)n1 [Imatinib] + O=C(c1cc(Cc2n[nH]c(=O)c3ccccc23)ccc1F)N1CCN(C(=O)C2CC2)CC1 [Olaparib] (partner 8 µM)
Method in brief: as §1

Imatinib + Navitoclax = compound: Cc1ccc(NC(=O)c2ccc(CN3CCN(C)CC3)cc2)cc1Nc1nccc(-c2cccnc2)n1 [Imatinib] + CC1(C)CCC(c2ccc(Cl)cc2)=C(CN2CCN(c3ccc(C(=O)NS(=O)(=O)c4ccc(N[C@H](CCN5CCOCC5)CSc5ccccc5)c(S(=O)(=O)C(F)(F)F)c4)cc3)CC2)C1 [Navitoclax] (partner 0.5 µM)
Method in brief: as §1

Imatinib + Pemetrexed = compound: Cc1ccc(NC(=O)c2ccc(CN3CCN(C)CC3)cc2)cc1Nc1nccc(-c2cccnc2)n1 [Imatinib] + Nc1nc2[nH]cc(CCc3ccc(C(=O)N[C@@H](CCC(=O)O)C(=O)O)cc3)c2c(=O)[nH]1 [Pemetrexed] (partner 0.2 µM)
Method in brief: as §1

Cell Line | relative viability (Imatinib + Linsitinib; first compound 0.02 µM) | relative viability (Imatinib + Linsitinib; first compound 0.2 µM) | relative viability (Imatinib + Linsitinib; first compound 0.6325 µM) | relative viability (Imatinib + Linsitinib; first compound 2 µM) | relative viability (Imatinib + Olaparib; first compound 0.02 µM) | relative viability (Imatinib + Olaparib; first compound 0.2 µM) | relative viability (Imatinib + Olaparib; first compound 0.6325 µM) | relative viability (Imatinib + Olaparib; first compound 2 µM) | relative viability (Imatinib + Navitoclax; first compound 0.02 µM) | relative viability (Imatinib + Navitoclax; first compound 0.2 µM) | relative viability (Imatinib + Navitoclax; first compound 0.6325 µM) | relative viability (Imatinib + Navitoclax; first compound 2 µM) | relative viability (Imatinib + Pemetrexed; first compound 0.02 µM) | relative viability (Imatinib + Pemetrexed; first compound 0.2 µM) | relative viability (Imatinib + Pemetrexed; first compound 0.6325 µM) | relative viability (Imatinib + Pemetrexed; first compound 2 µM) | relative viability (Imatinib + Linsitinib; first compound 0.06325 µM) | relative viability (Imatinib + Olaparib; first compound 0.06325 µM) | relative viability (Imatinib + Navitoclax; first compound 0.06325 µM) | relative viability (Imatinib + Pemetrexed; first compound 0.06325 µM)
NCI-H1355 | 0.865 | 0.846 | 0.841 | 0.871 | 0.812 | 0.822 | 0.762 | 0.699 | 1.06 | 0.99 | 0.922 | 0.947 | 1.14 | 1.11 | 1.08 | 1.01 |  |  |  | 
NCI-H1395 | 0.978 | 1.04 | 1.02 | 0.975 | 0.455 | 0.405 | 0.428 | 0.409 | 1.07 | 1.04 | 0.979 | 0.989 | 0.807 | 0.955 | 1.04 | 0.784 |  |  |  | 
NCI-H1437 |  | 1.42 |  | 1.04 | 0.692 | 0.719 | 0.686 | 0.604 | 1.24 | 1.34 | 1.08 | 1.04 | 0.318 | 0.374 | 0.33 | 0.279 | 1.18 | 0.703 | 1.17 | 0.354
NCI-H1651 | 1.09 | 1.21 | 0.946 | 1.11 | 0.173 | 0.177 | 0.19 | 0.166 | 1.34 |  | 1.05 | 1.13 | 0.617 | 0.586 | 0.58 | 0.555 | 1.14 | 0.231 | 1.21 | 0.339
NCI-H1666 | 0.718 |  | 0.986 | 0.857 | 0.734 | 0.769 | 0.833 | 0.74 |  | 1.06 | 1.1 | 1.06 | 0.902 | 0.897 | 0.842 | 0.842 | 0.849 | 0.763 | 1.16 | 0.906
NCI-H1755 | 1.05 |  | 0.979 | 0.994 | 0.946 | 0.968 | 0.881 | 0.85 | 1.02 | 1.12 | 0.988 | 1.04 | 0.568 | 0.416 | 0.386 | 0.625 | 1.08 | 0.848 | 1.06 | 0.44
NCI-H1792 | 0.623 | 0.502 | 0.317 | 0.566 | 0.477 | 0.225 |  | 0.33 | 0.744 | 0.761 | 0.644 | 0.567 | 1.06 | 0.848 |  | 0.748 | 0.332 | 0.481 | 0.557 | 0.931
NCI-H1793 | 1.09 | 1.06 | 0.96 |  | 0.92 | 1.22 | 0.782 | 0.88 | 0.378 | 0.409 | 0.362 | 0.513 | 0.945 | 1 | 1.01 | 0.792 |  |  |  | 
NCI-H1915 | 1.09 | 1.17 | 1.08 | 1.08 | 0.237 | 0.253 | 0.26 | 0.234 | 0.788 | 0.807 | 0.759 | 0.777 | 0.536 | 0.516 | 0.461 | 0.572 |  |  |  | 
